The values below come from patent EP0538305B1, “P[…] F[…] RELATED GUANINE DERIVATIVES FOR THE TREATMENT OF THE HIV-1 INFECTIONS” (BEECHAM GROUP PLC, priority 1990, dated 1992).

The target of this experiment is T1, HIV-1 reverse transcriptase (Human immunodeficiency virus type 1 group M subtype B, UniProt P04585).
T1 construct: equivalent to 2.85nM for an equimolar mixture of p66 and p51 polypeptides; host or cells: E. coli
Briefly: Assay for reverse transcriptase activity (incorporation of radioactive dGMP from [3H]dGTP into Poly (rC). p(dG)12-18). In kind it is biochemical, human immunodeficiency virus type 1 (HIV-1). The settings on record: for IC50: approximate, from plot of % inhibition against concentration of inhibitor, 1.02µM [3H]dGTP, 65 minutes at 37°C. The method, then: Chemicals [^3H]dGTP (16.3 Ci/mmol) was purchased from Amersham International, Aylesbury, U.K. Template primer Poly (rC). p(dG)12-18 (1:1, rC:dG ratio) and 2',3'-dideoxyguanosine-5-triphosphate (ddGTP) were obtained from Pharmacia Ltd., Milton Keynes, U.K. Penciclovir triphosphate (PCV-TP) was prepared in the laboratories of SmithKline Beecham Pharmaceuticals, Great Burgh, United Kingdom.
Reverse transcriptase Purified, E. coli expressed HIV-1 reverse transcriptase (RT) was supplied by the Protein Biochemistry Department of SmithKline Beecham Pharmaceuticals, Upper Merion, U.S.A. The enzyme was stored and diluted in a buffer containing 50mM Tris-HCl (pH 8.0), 10mM Hepes, 110mM NaCl, 5.7mM DTT, 0.3mM EDTA, 0.06% Triton X-100, 50% glycerol.
Assay for reverse transcriptase activity The reaction mixture for the HIV-1 RT assay contained in a volume of 120µl: 33mM Tris HCl (pH 8.0), 100mM KCl, 3.3mM MgCl2, 3.3mM dithiothreitol, 0.2mM glutathione, 0.33mM EGTA (ethylene glycol-bis-(β-aminoethyl ether) N,N-tetra acetic acid), 0.033% Triton X-100, 1.02µM [^3H]dGTP, 0-12.39µM inhibitors ddGTP, PCV-TP, 0.3 A260 units/ml Poly (rC). p(dG)12-18 and 167ng/ml RT (equivalent to 2.85nM for an equimolar mixture of p66 and p51 polypeptides). The reaction mixtures without RT were prepared in the microwells of a 96-well plate and preincubated at 37°C before the reactions were started by the addition of 20µl of the enzyme solution. The plates were then incubated for 65 minutes at 37°C. The incorporation rate was linear for the uninhibited control reaction over this time period. The reactions were terminated by the addition of 40µl of EDTA solution (0.2M, pH7.0). The individual reaction mixtures were transferred to a DEAE filter mat (1205-405, LKB Wallac, Finland), prewetted with 0.3M NaCl/0.03M Na citrate, using a cell harvester (1295-001, LKB Wallac). The filter mat was washed three times in the NaCl/Na citrate buffer and then once in 95% ethanol. Scintillation fluid (Beta Plate Scint, LKB Wallac) was added to the dried filter, and the reaction mixtures assayed for incorporation of radioactive dGMP in an LKB 1205 Beta Plate Liquid Scintillation Counter.

As for `Nc1nc2c(ncn2[C@H]2CC[C@@H](COP(=O)(O)OP(=O)(O)OP(=O)(O)O)O2)c(=O)[nH]1` [ddGTP, 2',3'-dideoxyguanosine-5-triphosphate, reference compound], the IC50 (in general, the concentration needed to halve the response being measured) turned out to be 25 nM. The inhibition (commonly how much of the control response was suppressed) at 0.001 µM (1 nM ddGTP) stood at 0%. Moreover, the “Incorporation of dGMP” value (1 nM ddGTP, uninhibited control 117892) was found to be 119726 c.p.m. The inhibition at 0.01 µM (10 nM ddGTP) worked out at 23.7%. For the same compound, for the setting “10 nM ddGTP, uninhibited control 117892”, the “Incorporation of dGMP” value is given as 89949 c.p.m. Moreover, for the setting “25 nM ddGTP”, the inhibition at 0.025 µM was found to be 50.2%. Besides, the “Incorporation of dGMP” value (25 nM ddGTP, uninhibited control 117892) amounted to 58703 c.p.m. Moreover, the inhibition at 0.05 µM (50 nM ddGTP) was determined as 70.2%. Further, the “Incorporation of dGMP” value (50 nM ddGTP, uninhibited control 117892) is 35091 c.p.m. The inhibition at 0.075 µM (75 nM ddGTP) stood at 77.8%. In addition, the “Incorporation of dGMP” value (75 nM ddGTP, uninhibited control 117892) stood at 26132 c.p.m. The inhibition at 0.1 µM (100 nM ddGTP) was found to be 81.2%. In addition, for the setting “100 nM ddGTP, uninhibited control 117892”, the “Incorporation of dGMP” value is 22161 c.p.m.
For the compound `Nc1nc2c(ncn2CCC(CO)COP(=O)(O)OP(=O)(O)OP(=O)(O)O)c(=O)[nH]1` (racemic) [PCV-TP, Penciclovir triphosphate], the IC50 was 4300 nM. Moreover, the inhibition at 0.124 µM (0.124 µM PCV-TP) stood at 4%. In addition, the “Incorporation of dGMP” value (0.124 µM PCV-TP, uninhibited control 88892) came out at 85313 c.p.m. Also, the inhibition at 1.24 µM (1.24 µM PCV-TP) stood at 21.2%. For the same compound, the “Incorporation of dGMP” value (1.24 µM PCV-TP, uninhibited control 88892) came to 70061 c.p.m. Besides, the inhibition at 3.1 µM (3.10 µM PCV-TP) is 41.7%. Moreover, the “Incorporation of dGMP” value (3.10 µM PCV-TP, uninhibited control 88892) is listed as 51866 c.p.m. Besides, the inhibition at 6.19 µM (6.19 µM PCV-TP) is 63%. Besides, under “6.19 µM PCV-TP, uninhibited control 88892”, the “Incorporation of dGMP” value is reported as 32921 c.p.m. The inhibition at 9.29 µM (9.29 µM PCV-TP) stood at 70.3%. Further, the “Incorporation of dGMP” value (9.29 µM PCV-TP, uninhibited control 88892) is listed as 26436 c.p.m. Moreover, the inhibition at 12.39 µM (12.39 µM PCV-TP) was 73.2%. Besides, the “Incorporation of dGMP” value (12.39 µM PCV-TP, uninhibited control 88892) was 23844 c.p.m.
